ChEMBL document CHEMBL1140622, “Structure based de novo design of novel glycogen synthase kinase 3 inhibitors” (Bioorg Med Chem, 2007)

assay: Inhibition of GSK3

| IC50 [nM] | Log IC50 | SMILES |
| --- | --- | --- |
| 190 | – | CN(C)CCCn1cc(C2=C(c3c[nH]c4ccccc34)C(=O)NC2=O)c2ccccc21 [GF-109203] |
| 130 | – | CC(=O)NC1=NC(=O)/C(=C2\CCNC(=O)c3c2cc(Br)n3C(C)=O)N1 [HYMENIALDISINE 2] |
| 5 | – | O=C1Nc2ccc(Br)cc2/C1=C1/Nc2ccccc2/C1=N\O [INDIRUBIN 2] |
| 17 | – | O=C1NC(=O)C2=C1c1cn(c3ccccc13)CCOCCOCCOCCn1cc2c2cccnc21 [INDOLYLYLMALEIMIDE 1] |
| 22 | – | O=C1NC(=O)C2=C1c1cn(c3ccccc13)CCOCCOCCOCCn1cc2c2ccccc21 [INDOLYLYLMALEIMIDE 2] |
| – | -8.8 | CN(C)CCNC(=O)c1ccc(/C=N/Nc2ncnc3c2cnn3-c2cccc3[nH]cnc23)cc1 [PYRAZOLOPYRIMIDINE 1] |
| – | -8.6 | COc1cccc(-n2ncc3c(N/N=C/c4ccc(S(C)(=O)=O)cc4)ncnc32)c1 [PYRAZOLOPYRIMIDINE 2] |

More lines, now with the values behind:

| SMILES | IC50 [nM] | Log IC50 |
| --- | --- | --- |
| CN1CCN(c2cnc(NCCNc3ccc([N+](=O)[O-])c(N)n3)nc2-c2ccc(Cl)cc2Cl)C(=O)C1 | 4 | – |
| O=C1NC(=O)C(c2cnc3cccnn23)=C1c1cn2c3c(cccc13)CN(C(=O)N1CCCCC1)CC2 [BISARYLMALEIMIDE 1] | 0.7 | – |
| O=C1NC(=O)C(c2cncc3ccoc23)=C1c1cn2c3c(cccc13)CN(C(=O)N1CCOCC1)CC2 [BISARYLMALEIMIDE 2] | 0.8 | – |
| CC(=O)O/N=C1/C(=C2/C(=O)Nc3cc(Cl)c(Cl)cc32)Nc2ccccc21 [INDIRUBIN 1] | 4 | – |
| COc1cccc(Nc2nccc(-c3cnn4ncccc34)n2)c1 [PYRAZOLOPYRIDAZINE 1] | 10 | – |
| COc1ccc(Nc2nccc(-c3cnn4ncccc34)n2)cc1OC [PYRAZOLOPYRIDAZINE 2] | 12 | – |
